Results on 16 compounds are retold here after patent US9481676B2, “Azepino[4,5-B]indoles and methods of use” (Medivation Technologies, Inc., priority 2008, dated 2016).

Experiment [1] deals with T1, human recombinant adrenergic α2B receptor (Homo sapiens, UniProt P18089).
T1 construct: expressed in transfected cells; host or cells: CHO-K1 cells
T1 sequence (P18089 1-450): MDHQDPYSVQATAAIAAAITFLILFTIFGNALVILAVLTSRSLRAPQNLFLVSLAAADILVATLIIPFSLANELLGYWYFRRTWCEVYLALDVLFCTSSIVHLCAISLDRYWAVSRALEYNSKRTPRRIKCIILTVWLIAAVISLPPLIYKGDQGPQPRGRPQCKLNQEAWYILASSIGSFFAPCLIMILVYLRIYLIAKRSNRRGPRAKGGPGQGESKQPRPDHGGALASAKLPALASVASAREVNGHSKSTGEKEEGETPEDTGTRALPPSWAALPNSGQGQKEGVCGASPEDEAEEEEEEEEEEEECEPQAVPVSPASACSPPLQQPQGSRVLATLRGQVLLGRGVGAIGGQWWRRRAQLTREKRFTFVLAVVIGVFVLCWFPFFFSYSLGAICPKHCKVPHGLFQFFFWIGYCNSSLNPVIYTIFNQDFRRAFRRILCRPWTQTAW
The experiment can be described thus: Adrenergic alpha2B radioligand binding ([3H]Rauwolscine). The note with it: compound at 1 μM; read-out: Adrenergic (1 μM) α2B, percent inhibition of specific binding. The procedure: To evaluate in radioligand binding assays the activity of compounds of the invention, human recombinant adrenergic α2B receptor expressed in Chinese hamster ovary (CHO-K1) cells (Uhlen S et al. Eur J. Pharmacol. 343(1):93, 1998) in a modified Tris-HCl buffer (50 mM Tris-HCl, pH 7.4, 12.5 mM MgCl2, 1 mM EDTA, 0.2% BSA) was used. Compounds of the invention were incubated with 2.5 nM [^3H]Rauwolscine for 60 min. at 25° C. Non-specific binding was estimated in the presence of 10 μM Prozosin. Receptor proteins were filtered and washed, the filters were then counted to determine [^3H]Rauwolscine specifically bound. Compounds were screened at 1 μM or lower, using 1% DMSO as vehicle. Biochemical assay results are presented as the percent inhibition of specific binding in Table 5.

The target in experiment [2] is T2, human recombinant adrenergic α2A receptor (Homo sapiens, UniProt P08913).
T2 construct: expressed in transfected cells; host or cells: insect Sf9 cells
T2 sequence (P08913 1-465): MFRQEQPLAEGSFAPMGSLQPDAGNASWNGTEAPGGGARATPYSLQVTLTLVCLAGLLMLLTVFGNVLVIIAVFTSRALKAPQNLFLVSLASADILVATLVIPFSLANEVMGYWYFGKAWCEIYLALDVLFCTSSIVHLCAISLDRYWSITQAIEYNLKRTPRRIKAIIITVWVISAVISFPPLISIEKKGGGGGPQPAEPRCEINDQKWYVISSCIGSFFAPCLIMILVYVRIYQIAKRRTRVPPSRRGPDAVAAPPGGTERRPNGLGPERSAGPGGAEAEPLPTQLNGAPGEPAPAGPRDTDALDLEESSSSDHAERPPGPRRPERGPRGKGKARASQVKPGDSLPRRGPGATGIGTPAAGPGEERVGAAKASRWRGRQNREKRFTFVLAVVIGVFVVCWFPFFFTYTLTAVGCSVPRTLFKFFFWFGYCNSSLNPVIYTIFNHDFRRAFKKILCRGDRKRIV
Nature of the experiment: Adrenergic alpha2A radioligand binding ([3H]MK-912). The conditions noted are these: compound at 1 μM; read-out: Adrenergic (1 μM) α2A, percent inhibition of specific binding. On the procedure: To evaluate in radioligand binding assays the activity of compounds of the invention, human recombinant adrenergic α2A receptor expressed in insect Sf9 cells (Uhlen S et al. J Pharmacol Exp Ther. 271:1558, 1994) in a modified Tris-HCl buffer (50 mM Tris-HCl, pH 7.4, 12.5 mM MgCl2, 2 mM EDTA) was used. Compounds of invention were incubated with 1 nM [^3H]MK-912 for 60 min. at 25° C. MK912 is (2S-trans)-1,3,4,5′,6,6′,7,12b-octahydro-1′,3′-dimethyl-spiro[2 h-benzofuro [2,3-a]quinolizine-2,4′ (1′H)-pyrimidin]-2′ (3′H)-one hydrochloride Non-specific binding was estimated in the presence of 10 μM WB-4101 (2-(2,6-Dimethoxyphenoxyethyl)aminomethyl-1,4-benzodioxane hydrochloride). Receptor proteins were filtered and washed, the filters were then counted to determine [^3H]MK-912 specifically bound. Compounds were screened at 1 μM or lower, using 1% DMSO as vehicle. Biochemical assay results are presented as the percent inhibition of specific binding in Table 5.

Experiment [3] addresses T3, human recombinant dopamine D2L receptor (Homo sapiens, UniProt P14416).
T3 construct: expressed in transfected cells; host or cells: CHO cells
The experiment can be described thus: Dopamine D2L radioligand binding ([3H]Spiperone). The note with it: compound at 1 μM; read-out: Dopamine (1 μM) D2L, percent inhibition of specific binding. The procedure, abridged: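 Binding measured by filtration and counting, reported as % inhibition of specific [3H]spiperone binding (0.16 nM tracer; 10 μM haloperidol for nonspecific). Compounds tested at ≤1 μM in 1% DMSO for 120 min at 25° C against CHO-expressed human D2L in pH 7.4 Tris-HCl buffer.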

Experiment [4] has as its target T4, human recombinant serotonin (5-Hydroxytryptamine) 5-HT2A receptor (Homo sapiens, UniProt P28223).
T4 construct: expressed in transfected cells; host or cells: CHO-K1 cells
Nature of the experiment: Serotonin 5-HT2A radioligand binding ([3H]Ketanserin). The conditions noted are these: compound at 1 μM; read-out: Serotonin (1 μM) 5-HT2A, percent inhibition of specific binding. The essentials: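 Percent inhibition of specific [3H]ketanserin (0.5 nM) binding, filtration read-out, with compounds at ≤1 μM (1% DMSO vehicle). Receptor source: recombinant human 5-HT2A in CHO-K1 cells, 50 mM Tris-HCl pH 7.4, 60 min, 25 °C; 1 μM mianserin gives nonspecific binding.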

T4 sequence (P28223 whole entry): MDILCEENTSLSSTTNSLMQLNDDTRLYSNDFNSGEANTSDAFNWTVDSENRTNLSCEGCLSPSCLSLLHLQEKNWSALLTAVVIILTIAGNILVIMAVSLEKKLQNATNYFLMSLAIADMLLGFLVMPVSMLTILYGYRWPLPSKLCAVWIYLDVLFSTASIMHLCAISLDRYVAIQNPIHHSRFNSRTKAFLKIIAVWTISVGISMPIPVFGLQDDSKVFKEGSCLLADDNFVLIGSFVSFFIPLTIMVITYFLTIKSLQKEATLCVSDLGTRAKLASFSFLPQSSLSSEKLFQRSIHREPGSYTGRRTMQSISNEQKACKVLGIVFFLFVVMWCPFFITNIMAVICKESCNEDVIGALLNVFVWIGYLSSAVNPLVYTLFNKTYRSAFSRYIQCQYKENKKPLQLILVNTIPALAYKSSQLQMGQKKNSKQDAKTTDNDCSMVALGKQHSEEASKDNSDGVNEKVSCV
T3 sequence (P14416 whole entry): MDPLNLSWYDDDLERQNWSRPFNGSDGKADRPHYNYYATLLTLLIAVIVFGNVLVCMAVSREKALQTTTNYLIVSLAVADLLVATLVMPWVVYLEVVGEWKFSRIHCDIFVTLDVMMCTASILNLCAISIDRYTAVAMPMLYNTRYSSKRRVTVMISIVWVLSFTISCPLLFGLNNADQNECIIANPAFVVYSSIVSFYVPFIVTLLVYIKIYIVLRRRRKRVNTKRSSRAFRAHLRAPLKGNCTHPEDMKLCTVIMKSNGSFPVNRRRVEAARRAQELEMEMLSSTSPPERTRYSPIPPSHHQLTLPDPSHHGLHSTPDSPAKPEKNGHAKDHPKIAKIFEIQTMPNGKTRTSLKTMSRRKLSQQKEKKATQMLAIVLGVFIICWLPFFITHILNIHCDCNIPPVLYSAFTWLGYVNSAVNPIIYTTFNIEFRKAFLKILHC

With `COc1ccc(C(O)Cn2c3c(c4cc(C)ccc42)CCN(C)CC3)cc1` (stereo not shown) [Compound No. 48, 2-(2,3,4,5-tetrahydro-3,9-dimethylazepino[4,5-b]indol-6(1H)-yl)-1-(4-methoxyphenyl) ethanol], the inhibition at 1 µM in experiment [1] was determined as 103%; in experiment [2] it was 98%; in experiment [3], 31%; in experiment [4], 97%.
On to `Cc1ccc2c(c1)c1c(n2CCc2cncc(Cl)c2)CCN(C)CC1` [Compound No. 4, 6-(2-(5-chloropyridin-3-yl)ethyl)-1,2,3,4,5,6-hexahydro-3,9-dimethylazepino[4,5-b]indole], for which the inhibition at 1 µM in experiment [1] was found to be 93%; in experiment [2] it was 85%; in experiment [3], 2%; in experiment [4], 93%.
For the compound `CC(C)NC(=O)Cn1c2c(c3cc(Cl)ccc31)CCN(C)CC2` [Compound No. 31, 2-(9-chloro-2,3,4,5-tetrahydro-3-methylazepino[4,5-b]indol-6(1H)-yl)-N-isopropylacetamide], the inhibition at 1 µM in experiment [1] is 23%; in experiment [2], 31%; in experiment [3] it was 4%; in experiment [4] it was 43%.
The corresponding values for `CN1CCc2c(n(CC(=O)OCc3ccccc3)c3ccc(Cl)cc23)CC1` [Compound No. 75, Benzyl-2-(9-chloro-2,3,4,5-tetrahydro-3-methylazepino[4,5-b]indol-6(1H)-yl)acetate] are 21%, 7%, 2% and 34%.
Regarding `Cc1ccc2c(c1)c1c(n2CC(O)c2ccc(F)cc2F)CCN(C)CC1` (stereo not shown) [Compound No. 59, 1-(2,4-difluorophenyl)-2-(2,3,4,5-tetrahydro-3,9-dimethylazepino[4,5-b]indol-6(1H)-yl)ethanol], the inhibition at 1 µM in experiment [1] came out at 9%; in experiment [2], 89%; in experiment [3], 20%; in experiment [4] it was 93%.
Take `Cc1ccc(C(O)Cn2c3c(c4cc(Cl)ccc42)CCN(C)CC3)cc1` (stereo not shown) [Compound No. 26, 2-(9-chloro-2,3,4,5-tetrahydro-3-methylazepino[4,5-b]indol-6(1H)-yl)-1-p-tolylethanol]: the inhibition at 1 µM in experiment [1] was determined as 104%; in experiment [2], 99%; in experiment [3] it was 65%; in experiment [4], 100%.
The like results for `Cc1ccc2c(c1)c1c(n2CC(=O)Nc2ccc(F)cc2)CCN(C)CC1` [Compound No. 44, N-(4-fluorophenyl)-2-(2,3,4,5-tetrahydro-3,9-dimethylazepino[4,5-b]indol-6(1H)-yl)acetamide] were, in that order, 12%, 1%, -8% and 17%.
Consider `CN1CCc2c(n(C#Cc3ccc(Cl)cc3)c3ccc(Cl)cc23)CC1` [Compound No. 282, 9-chloro-6-((4-chlorophenyl)ethynyl)-3-methyl-1,2,3,4,5,6-hexahydroazepino[4,5-b]indole], for which the inhibition at 1 µM in experiment [1] was 102%; in experiment [2], 95%; in experiment [3], 1%; in experiment [4], 98%.
Regarding `CN1CCc2c(n(CCc3ccc(C(=O)O)nc3)c3ccc(Cl)cc23)CC1` [Compound No. 21, 5-(2-(9-chloro-2,3,4,5-tetrahydro-3-methylazepino[4,5-b]indol-6(1H)-yl)ethyl)pyridine-2-carboxylic acid], the inhibition at 1 µM in experiment [1] was 6%; in experiment [2], -7%; in experiment [3], 6%; in experiment [4], 8%.
Regarding `Cc1ccc2c(c1)c1c(n2CCc2ccccc2Cl)CCN(C)CC1` [Compound No. 69, 6-(2-chlorophenethyl)-1,2,3,4,5,6-hexahydro-3,9-dimethylazepino[4,5-b]indole], the inhibition at 1 µM in experiment [1] is -4%; in experiment [2], 8%; in experiment [3], -2%; in experiment [4], 52%.
In the case of `Cc1ccc(C(O)Cn2c3c(c4cc(C)ccc42)CCN(C)CC3)cc1` (stereo not shown) [Compound No. 27, 2-(2,3,4,5-tetrahydro-3,9-dimethylazepino[4,5-b]indol-6(1H)-yl)-1-p-tolylethanol], the inhibition at 1 µM in experiment [1] came out at 100%; in experiment [2], 98%; in experiment [3] it was 58%; in experiment [4], 99%.
Take `Cc1ccc2c(c1)c1c(n2CCc2ccccc2)CCN(C)CC1` [Compound No. 62, 1,2,3,4,5,6-hexahydro-3,9-dimethyl-6-phenethylazepino[4,5-b]indole]: the inhibition at 1 µM in experiment [1] came to 98%; in experiment [2] it was 11%; in experiment [3] it was 7%; in experiment [4], 12%.
For `Cc1ccc(CCn2c3c(c4cc(Cl)ccc42)CCN(C)CC3)cc1` [Compound No. 46, 9-chloro-3-methyl-6-(4-methylphenethyl)-1,2,3,4,5,6-hexahydroazepino[4,5-b]indole], the inhibition at 1 µM in experiment [1] was determined as 107%; in experiment [2], 100%; in experiment [3], 79%; in experiment [4], 100%.
`CN1CCc2c(n(CCc3ccc(Cl)cc3)c3ccc(Cl)cc23)CC1` [Compound No. 30, 6-(4-chlorophenethyl)-9-chloro-1,2,3,4,5,6-hexahydro-3-methylazepino[4,5-b]indole]: the inhibition at 1 µM in experiment [1] turned out to be 100%; in experiment [2] it was 99%; in experiment [3], 53%; in experiment [4], 100%.
For the compound `CN1CCc2c(n(CC(=O)N(C)C3CCCCC3)c3ccc(Cl)cc23)CC1` [Compound No. 74, 2-(9-chloro-2,3,4,5-tetrahydro-3-methylazepino[4,5-b]indol-6(1H)-yl)-N-cyclohexyl-N-methylacetamide], the inhibition at 1 µM in experiment [1] is 27%; in experiment [2], 19%; in experiment [3] it was -2%; in experiment [4] it was 27%.
On to `COc1ccc(C(O)Cn2c3c(c4cc(C)ccc42)CCN(C)CC3)c(F)c1` (stereo not shown) [Compound No. 50, 1-(2-fluoro-4-methoxyphenyl)-2-(2,3,4,5-tetrahydro-3,9-dimethylazepino[4,5-b]indol-6(1H)-yl)ethanol], for which the inhibition at 1 µM came out at 102% in experiment [1], 94% in experiment [2], 34% in experiment [3] and 98% in experiment [4].

In general, inhibition refers to the drop in the measured response relative to a control, in per cent.
